Our source for the MIC values is ChEMBL document CHEMBL1127132, “Synthesis and biological activity of tetracyclic carbapenems” (1993).

In brackets after ≈: the same amount, converted by molar mass.

What all share (type): functional
Test [1] concerns Serratia. Description: Compound was evaluated for antibacterial activity against serratia 16002 compared to imipenem.
The subject of a further test is Providencia rettgeri. Description: Compound was evaluated for antibacterial activity against Proteus rettgeri 10007 compared to imipenem.
In test [2] the test system is Enterobacter cloacae. Description: Compound was evaluated for antibacterial activity against Enterob. cl.5744 compared to imipenem.
In test [3] the test system is Staphylococcus. Put plainly: Compound was evaluated for antibacterial activity against Staphylococcus 25455 compared to imipenem.
In another test the test system is Morganella morganii. Put plainly: Compound was evaluated for antibacterial activity against Proteus morganii.932 compared to imipenem.
Another test deals with Proteus vulgaris. Description: Compound was evaluated for antibacterial activity against Proteus vulgaris N6 compared to imipenem.
The subject of test [4] is Escherichia coli. Put plainly: Compound was evaluated for antibacterial activity against Escherichia coli Neumann compared to imipenem.
The next test concerns Proteus mirabilis. Description: Compound was evaluated for antibacterial activity against Proteus mirabilis 1235 compared to imipenem.
Test [5] deals with Serratia. Description: Compound was evaluated for antibacterial activity against serratia 16001 compared to imipenem.
The next test deals with Acinetobacter sp. Put plainly: (§1) Compound was evaluated for antibacterial activity against Acinetobacter 14601 compared to imipenem.
The subject of test [6] is Klebsiella. Description: Compound was evaluated for antibacterial activity against Klebsiella 57USA compared to imipenem.
Test [7] has as its system Staphylococcus. Put plainly: Compound was evaluated for antibacterial activity against Staphylococcus 25470 compared to imipenem.
For another test, the system named is Pseudomonas aeruginosa. Description: Compound was evaluated for antibacterial activity against Pseudomonas aeruginosa F 41 compared to imipenem.
The subject of test [8] is Escherichia coli. Put plainly: Compound was evaluated for antibacterial activity against Escherichia coli F14 compared to imipenem.
Test [9] concerns Klebsiella. Description: Compound was evaluated for antibacterial activity against Klebsiella 63 compared to imipenem.
Test [10] concerns Staphylococcus aureus. Description: Compound was evaluated for antibacterial activity against Staphylococcus aureus 133 compared to imipenem.
For test [11], the system named is Enterobacter cloacae. Description: Compound was evaluated for antibacterial activity against Enterobacter cloacae 5744 compared to imipenem.
A further test deals with Acinetobacter. Described as §1.
Test [12] deals with Staphylococcus aureus. Put plainly: Compound was evaluated for antibacterial activity against Staphylococcus aurues 133 compared to imipenem.
The test system of test [13] is Staphylococcus. Description: Tested for antibacterial activity against Staphylococcus 25470 compared to imipenem.

As for `C[C@@H](O)[C@H]1C(=O)N2C(C(=O)O)=C(SCCNC=N)C[C@H]12` [IMIPENEM ANHYDROUS], the MIC (in general, the lowest concentration found to suppress growth) was 0.5 µg/mL (≈ 1.67 µM) against Serratia [1]; 2 µg/mL (≈ 6.68 µM) in the test with Providencia rettgeri; 0.5 µg/mL (≈ 1.67 µM) against Enterobacter cloacae [2]; under 0.25 µg/mL in the test with Staphylococcus [3]; 0.5 µg/mL (≈ 1.67 µM) with Morganella morganii; 0.5 µg/mL (≈ 1.67 µM) against Proteus vulgaris. Besides, the MIC was under 0.25 µg/mL with Escherichia coli [4]; 4 µg/mL (≈ 13.4 µM) with Proteus mirabilis; under 0.25 µg/mL in the test on Serratia [5]; under 0.25 µg/mL in the test with Acinetobacter sp.; under 0.25 µg/mL with Klebsiella [6]; 32 µg/mL (≈ 107 µM) with Staphylococcus [7]. The MIC was 2 µg/mL (≈ 6.68 µM) in the test on Pseudomonas aeruginosa, under 0.25 µg/mL in the test with Escherichia coli [8], under 0.25 µg/mL against Klebsiella [9] and under 0.25 µg/mL against Staphylococcus aureus [10].

Turning to `C[C@@H](O)[C@H]1C(=O)N2C(C(=O)[O-])=C3c4ccsc4CC[C@@H]3[C@H]12.[Na+]`, the MIC against Serratia [1] was 32 µg/mL; against Providencia rettgeri, 4 µg/mL; against Staphylococcus [3], 1 µg/mL; against Morganella morganii, 2 µg/mL; against Proteus vulgaris it was under 0.25 µg/mL; against Escherichia coli [4], 1 µg/mL. In addition, the MIC was 1 µg/mL against Proteus mirabilis; 8 µg/mL against Enterobacter cloacae [11]; 32 µg/mL in the test with Serratia [5]; 16 µg/mL with Acinetobacter; 4 µg/mL with Klebsiella [6]; 32 µg/mL against Staphylococcus [7]. Also, the MIC in the test with Pseudomonas aeruginosa was determined as 128 µg/mL; against Escherichia coli [8], 8 µg/mL; in the test with Staphylococcus aureus [12] it was 1 µg/mL; in the test on Klebsiella [9], 4 µg/mL.

For `C[C@@H](O)[C@H]1C(=O)N2C(C(=O)[O-])=C3c4ccccc4SC[C@@H]3[C@H]12.[Na+]`, the MIC with Serratia [1] is 16 µg/mL; against Providencia rettgeri, 2 µg/mL; against Staphylococcus [3] it was under 0.25 µg/mL; against Morganella morganii, 1 µg/mL; against Proteus vulgaris, under 0.25 µg/mL; against Escherichia coli [4], 0.5 µg/mL. In addition, the MIC in the test with Proteus mirabilis is under 0.25 µg/mL; in the test on Enterobacter cloacae [11], 4 µg/mL; in the test on Serratia [5], 8 µg/mL; in the test with Acinetobacter, 4 µg/mL; against Klebsiella [6] it was 4 µg/mL; in the test with Staphylococcus [7] it was 8 µg/mL. Further, the MIC against Pseudomonas aeruginosa was 128 µg/mL; against Escherichia coli [8], 8 µg/mL; with Klebsiella [9], 2 µg/mL; with Staphylococcus aureus [10], under 0.25 µg/mL.

For `C[C@@H](O)[C@H]1C(=O)N2C(C(=O)[O-])=C3c4ccccc4CCC[C@@H]3[C@H]12.[Na+]`, the minimal inhibitory concentration (MIC) with Serratia [1] came out at 64 µg/mL; with Providencia rettgeri, 16 µg/mL; against Staphylococcus [3], 0.5 µg/mL; against Morganella morganii, 16 µg/mL; against Proteus vulgaris, 1 µg/mL; against Staphylococcus [13], 128 µg/mL. Moreover, the MIC in the test on Escherichia coli [4] amounted to 2 µg/mL; with Proteus mirabilis it was 0.5 µg/mL; in the test with Enterobacter cloacae [11], 32 µg/mL; in the test on Serratia [5] it was 64 µg/mL; with Acinetobacter it was 64 µg/mL; with Klebsiella [6], 1 µg/mL. In addition, the MIC is 128 µg/mL against Pseudomonas aeruginosa, 16 µg/mL in the test with Escherichia coli [8], 16 µg/mL in the test with Klebsiella [9] and 0.5 µg/mL in the test on Staphylococcus aureus [10].
